{"source": "the PolyMetriX glass transition set", "note": "± gives the standard deviation of the reports.", "data": [{"units": {"glass transition temperature": "°C"}, "values": [{"smiles": "*CCCCCOc1ccc(/C=C/C(=O)OCCN(CCOC(=O)/C=C/c2ccc(O*)cc2)c2ccc(/N=N/c3ccc([N+](=O)[O-])cc3)cc2)cc1", "note": "(repeat unit)", "glass transition temperature": 92.00}, {"smiles": "*CC(*)OC(=O)c1ccc(Cl)cc1", "note": "(repeat unit)", "glass transition temperature": 70.2}, {"smiles": "*/C=C/c1cc(OCCCCCCC)c(/C=C/c2ccc(*)cc2)cc1OCCCCCCC", "note": "(repeat unit)", "glass transition temperature": 46.00}, {"smiles": "*c1ccc(Oc2ccc3ccccc3c2-c2c(Oc3ccc(N4C(=O)c5ccc(NC(=O)Nc6ccc(Oc7ccc(NC(=O)Nc8ccc9c(c8)C(=O)N(*)C9=O)cc7)cc6)cc5C4=O)cc3)ccc3ccccc23)cc1", "note": "(repeat unit)", "glass transition temperature": 274.00}, {"smiles": "*C(=O)NCCCCCCNC(=O)c1ccc(N2C(=O)c3ccc(*)cc3C2=O)cc1", "note": "(repeat unit)", "glass transition temperature": 225.00}, {"smiles": "*CCCCOC(=O)CCCCCCCC(=O)O*", "note": "(repeat unit)", "glass transition temperature": -62.50}, {"smiles": "*Nc1ccc(C(c2ccc(NC(=O)c3ccc(C(c4ccc(C(*)=O)cc4)(C(F)(F)F)C(F)(F)F)cc3)cc2)(P2(=O)Oc3ccccc3-c3ccccc32)P2(=O)Oc3ccccc3-c3ccccc32)cc1", "note": "(repeat unit)", "glass transition temperature": 235.00}, {"smiles": "*c1ccc(-c2cc(C(C)(C)C)c(Oc3ccc(-n4c(=O)c5cc6c(=O)n(*)c(=O)c6cc5c4=O)cc3)c(C(C)(C)C)c2)cc1", "note": "(repeat unit)", "glass transition temperature": 398.50}, {"smiles": "*CC(*)F", "note": "(repeat unit) [Poly(vinyl fluoride)]", "glass transition temperature": "33.92 ± 10"}, {"smiles": "*CC(*)C(=O)Oc1ccc(/N=N/c2ccc(OC)cc2)cc1", "note": "(repeat unit)", "glass transition temperature": 140.00}, {"smiles": "*CCOC(=O)CCC(=O)O*", "note": "(repeat unit) [Poly(ethylene succinate)]", "glass transition temperature": "-8.63 ± 3.5"}, {"smiles": "*C(=O)Nc1ccc(-c2ccc(NC(=O)c3ccc4c(c3)C(=O)N(c3ccc(Oc5cccc6c(N7C(=O)c8ccc(*)cc8C7=O)cccc56)cc3)C4=O)c(OC)c2)cc1OC", "note": "(repeat unit)", "glass transition temperature": 304.00}, {"smiles": "*CCCCCCOC(=O)C(CCCCCP(=O)(O)O)C(=O)OCCCCCCOc1ccc(-n2on2-c2ccc(O*)cc2)cc1", "note": "(repeat unit)", "glass transition temperature": 17.00}, {"smiles": "*C(=O)c1ccc2c(c1)C(=O)N(c1cc(Oc3c(C)cc(-c4cc(C)c(Oc5cc(N6C(=O)c7ccc(*)cc7C6=O)cc(C(F)(F)F)c5)c(C)c4)cc3C)cc(C(F)(F)F)c1)C2=O", "note": "(repeat unit)", "glass transition temperature": 265.40}, {"smiles": "*CC(*)(C)C(=O)OCC(F)(F)C(F)(F)F", "note": "(repeat unit)", "glass transition temperature": 77.00}, {"smiles": "*O[Si](C)(C)O[Si](C)(C)O[Si](C)(C)O[Si](C)(C)O[Si](C)(C)c1ccc(Oc2ccc([Si](*)(C)C)cc2)cc1", "note": "(repeat unit)", "glass transition temperature": -65.00}, {"smiles": "*c1ccc([Si](c2ccccc2)(c2ccccc2)c2ccc(-c3ccc4c(c3)c3cc(*)ccc3n4CCCCCC#N)cc2)cc1", "note": "(repeat unit)", "glass transition temperature": 165.00}, {"smiles": "*/C=C(/*)CCCOc1ccc(OC(=O)c2ccc(OCCCCCCCC)cc2)cc1", "note": "(repeat unit)", "glass transition temperature": 42.00}, {"smiles": "*Oc1ccc(C(CCC)(CCC)c2ccc(OC(*)=O)cc2)cc1", "note": "(repeat unit) [Poly[4,4-heptane bis(4-phenyl)carbonate]]", "glass transition temperature": "148 ± 0.6"}, {"smiles": "*C(=O)Nc1ccc(C)cc1N1C(=O)CC(N2C(=O)c3ccc(*)cc3C2=O)C1=O", "note": "(repeat unit)", "glass transition temperature": 237.00}, {"smiles": "*CC(*)c1ccccc1C", "note": "(repeat unit)", "glass transition temperature": 131.00}, {"smiles": "*CCCCCCCCCC(=O)N*", "note": "(repeat unit) [Poly(decano-10-lactam)]", "glass transition temperature": "42.42 ± 0.8"}, {"smiles": "*Oc1c(Cl)cc(C2(c3cc(Cl)c(OC(*)=O)c(Cl)c3)CC3CCC2C3)cc1Cl", "note": "(repeat unit)", "glass transition temperature": 290.00}, {"smiles": "*c1ccc(-c2ccc(-c3ccc(-c4ccc(-c5ccc6c(c5)C(=O)N(c5ccc(Oc7ccc(N8C(=O)c9ccc(*)cc9C8=O)cc7)cc5)C6=O)cc4)cc3)cc2)cc1", "note": "(repeat unit)", "glass transition temperature": 244.00}, {"smiles": "*Oc1cc(C(=O)c2ccccc2)c(Oc2ccc(*)cc2)cc1C(=O)c1ccccc1", "note": "(repeat unit)", "glass transition temperature": 137.00}, {"smiles": "*c1ccc2c(c1)C(=O)N(c1ccc(OCCOCCOCCOCCOc3ccc(N4C(=O)c5ccc(C(*)(C(F)(F)F)C(F)(F)F)cc5C4=O)cc3)cc1)C2=O", "note": "(repeat unit)", "glass transition temperature": 140.00}, {"smiles": "*c1ccc(Sc2cc3c(cc2Sc2ccc(N4C(=O)C5C6C=CC(C7C(=O)N(*)C(=O)C67)C5C4=O)cc2)C(=O)N(CCN(C)C)C3=O)cc1", "note": "(repeat unit)", "glass transition temperature": 310.00}, {"smiles": "*CC(F)(F)C(F)(F)C(F)(F)COC(=O)NCC(F)(F)C(F)(F)C(F)(F)C(F)(F)CNC(=O)O*", "note": "(repeat unit)", "glass transition temperature": 25.00}, {"smiles": "*/C=C/c1c(OC(=O)c2ccc(C(=O)Oc3ccc4ccccc4c3/C=C/c3cccc(*)n3)cc2)ccc2ccccc12", "note": "(repeat unit)", "glass transition temperature": 145.00}, {"smiles": "*CCCCCCCCCCCOC(=O)c1ccc2cc(C(=O)O*)ccc2c1", "note": "(repeat unit)", "glass transition temperature": 43.00}, {"smiles": "*CC(*)C(=O)OCCOC(F)(F)C(F)F", "note": "(repeat unit)", "glass transition temperature": -22.00}, {"smiles": "*OC(=O)OCCCCCCOC(=O)OC1COC2C(*)COC12", "note": "(repeat unit)", "glass transition temperature": 27.50}, {"smiles": "*CNC(=O)CCCCC(=O)NCC1COC(*)CO1", "note": "(repeat unit)", "glass transition temperature": 93.00}, {"smiles": "*Nc1ccc(NC(=O)c2ccc(NC(=O)CCCCCCC(=O)Nc3ccc(C(*)=O)cc3)cc2)cc1C(=O)OCCCCCCCCCCCCCCCCCC", "note": "(repeat unit)", "glass transition temperature": 305.00}, {"smiles": "*CCCCCCNC(=O)CCc1ccc(CCC(=O)N*)cc1", "note": "(repeat unit)", "glass transition temperature": 85.00}, {"smiles": "*CC(*)(C)C(=O)OCCOc1ccc(/N=N/c2ccc(C#N)cc2)cc1", "note": "(repeat unit)", "glass transition temperature": 109.00}, {"smiles": "*Nc1cc(NC(=O)c2ccc(C(*)=O)cc2)cc(-c2nc3ccccc3oc2=O)c1", "note": "(repeat unit)", "glass transition temperature": 103.00}, {"smiles": "*OP(=O)(Oc1ccc(OC)cc1)Oc1c(Br)cc(C(c2cc(Br)c(*)c(Br)c2)(C(F)(F)F)C(F)(F)F)cc1Br", "note": "(repeat unit)", "glass transition temperature": 151.00}, {"smiles": "*c1ccc(Sc2ccc(Sc3ccc(N4C(=O)c5ccc(Sc6ccc(Sc7ccc(Sc8ccc9c(c8)C(=O)N(*)C9=O)cc7)cc6)cc5C4=O)cc3)s2)cc1", "note": "(repeat unit)", "glass transition temperature": 185.50}, {"smiles": "*Oc1ccc(C(C)(CC)c2ccc(OC(*)=O)cc2)cc1", "note": "(repeat unit)", "glass transition temperature": 136.00}, {"smiles": "*CC(*)(C)C(=O)Oc1ccc([N+](=O)[O-])c(C)c1", "note": "(repeat unit)", "glass transition temperature": 101.00}, {"smiles": "*O[Si](C)(C)O[Si](C)(C)O[Si](C)(C)c1ccc([Si](*)(C)C)cc1", "note": "(repeat unit)", "glass transition temperature": -62.00}, {"smiles": "*Oc1ccc(-c2ccc(Oc3ccc(/C(=N/c4ccc(/N=C(\\c5ccccc5)c5ccc(*)cc5)cc4)c4ccccc4)cc3)cc2)cc1", "note": "(repeat unit)", "glass transition temperature": 195.00}, {"smiles": "*CC(C)(CC)COC(=O)c1ccc(-c2ccc(C(=O)O*)cc2)cc1", "note": "(repeat unit)", "glass transition temperature": 99.00}, {"smiles": "*Oc1ccc2cc(Oc3ccc(S(=O)(=O)c4ccc(Oc5ccc(C(=O)c6ccc(*)cc6)cc5)cc4)cc3)ccc2c1", "note": "(repeat unit)", "glass transition temperature": 199.00}, {"smiles": "*CCCCCCOC(=O)C(CCCCP(=O)(OCC)OCC)C(=O)OCCCCCCOc1ccc(-n2on2-c2ccc(O*)cc2)cc1", "note": "(repeat unit)", "glass transition temperature": 4.00}]}]}
